Here are results for 24 compounds from patent publication US11103493B2, “Substituted pyridinyl compounds as indoleamine 2,3-dioxygenase (IDO) inhibitors” (Merck Sharp & Dohme Corp., priority 2017, dated 2021).

Usually IC50 stands for the point on the concentration scale where inhibition reaches its midpoint.

The structures appear in SMILES notation.

One test deals with T1, IDO1 (Homo sapiens, UniProt P14902). Briefly: IDO1 Cellular Assay in HeLa Cells Stimulated with IFNγ. It counts as cell-based. As to conditions: IFNγ 100 ng/mL, 300 uM L-tryptophan, about 48 hours incubation, fluorescence readout, read-out: IDO1 HeLa Cell Assay, IC50. On the procedure: IDO1 Cellular Assay in HeLa Cells Stimulated with IFNγ
T1 sequence (P14902 whole entry): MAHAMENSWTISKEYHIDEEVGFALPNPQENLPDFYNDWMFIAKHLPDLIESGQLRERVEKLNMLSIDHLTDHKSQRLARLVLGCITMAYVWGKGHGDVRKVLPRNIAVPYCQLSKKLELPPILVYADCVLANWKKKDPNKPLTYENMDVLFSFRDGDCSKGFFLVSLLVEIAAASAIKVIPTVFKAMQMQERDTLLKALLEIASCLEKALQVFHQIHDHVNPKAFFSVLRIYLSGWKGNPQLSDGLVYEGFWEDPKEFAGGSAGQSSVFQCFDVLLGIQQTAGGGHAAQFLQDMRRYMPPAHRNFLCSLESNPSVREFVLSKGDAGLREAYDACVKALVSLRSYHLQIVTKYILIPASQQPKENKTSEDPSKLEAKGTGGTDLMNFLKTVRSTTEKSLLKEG
HeLa cells were cultured in complete HeLa culture medium (90% EMEM, 10% heat-inactivated fetal bovine serum) and expanded to about 1×10^9 cells. The cells were then collected and frozen down at 1×10^7 cells/vial in 1 mL frozen medium (90% complete HeLa culture medium, 10% DMSO).
Compounds to be tested were serially diluted in ten 3-fold steps in DMSO starting from 10 mM DMSO stocks in Echo low volume plate(s).
Frozen HeLa cells were thawed and transferred into HeLa assay medium (99% complete HeLa culture medium, 1% Pen/Strep) with 20 mL medium/vial of cells. The cells were spun down at 250 g in a table top centrifuge for 5 min and suspended in same volume of HeLa assay medium. The cells were then counted and adjusted to a density of 2×10^5 cells/mL in HeLa assay medium. Sterile L-tryptophan were added to the cells with final concentration of 300 uM L-tryptophan. A small aliquot (2 mL/plate) of HeLa cells were set aside and were not treated with IFNγ, to serve as the Max-E control.
HeLa cells with and without IFNγ were dispensed to the respective wells of 384-well assay plates containing the compounds. The plates were incubated for about 48 hours at a 37° C., 5% CO2 incubator. Afterwards, 12 μL of 0.5 M methyl isonipecotate in dimethyl sulfoxide were added into each well and the plates were sealed and incubated at 37° C. without CO2 overnight. The plates were centrifuged for 1 min at 200×g. The resulting fluorescence was measured in a Spectramax plate reader (Molecular Devices) with a 400 nm excitation filter and a 510 nm emission filter.
Potencies were calculated by […] least squares fit to the four parameter logistic IC50 equation.
Consider `O=C(Nc1ccc(C2(c3nc4ncc(Br)cc4[nH]3)CCC2)cn1)c1cccc(Cl)c1` [Ex. 1, N-(5-(1-(6-bromo-1H-imidazo[4,5-b]pyridin-2-yl)cyclobutyl)pyridin-2-yl)-3-chlorobenzamide], for which the IC50 was 10.1 nM.
Same read-out and setting: the result for `N#Cc1cnc2nc(C3(c4ccc(NC(=O)c5cccc(Cl)c5)nc4)CCC3)[nH]c2c1` [Ex. 2, 3-Chloro-N-(5-(1-(6-cyano-1H-imidazo[4,5-b]pyridin-2-yl)cyclobutyl)pyridin-2-yl)benzamide] reads 13.6 nM; that for `O=C(Nc1ccc(C2(c3nc4ccccc4[nH]3)CCC2)cn1)c1cccc(Cl)c1` [Ex. 3, N-(5-(1-(1H-benzo[d]imidazol-2-yl)cyclobutyl)pyridin-2-yl)-3-chlorobenzamide], 6.87 nM; that for `N#Cc1cnc2nc(C3(c4ccc(NC(=O)c5cncc(F)c5)nc4)CCC3)[nH]c2c1` [Ex. 4, N-(5-(1-(6-cyano-1H-imidazo[4,5-b]pyridin-2-yl)cyclobutyl)pyridin-2-yl)-5-fluoronicotinamide], 144 nM.
The same measure, in the same setting: the result for `N#Cc1cnc2[nH]c(C3(c4ccc(NC(=O)c5cccc(Cl)c5)nc4)CCC3)cc2c1` [Ex. 6, 3-Chloro-N-(5-(1-(5-cyano-1H-pyrrolo[2,3-b]pyridin-2-yl)cyclobutyl)pyridin-2-yl)benzamide] reads 633 nM; that for `Cc1cccc2nc(C3(c4ccc(NC(=O)c5cccc(Cl)c5)nc4)CCC3)[nH]c12` [Ex. 11, 3-chloro-N-{5-[1-(7-methyl-1H-benzimidazol-2-yl)cyclobutyl]pyridin-2-yl}benzamide], 10.2 nM.
On the same count and under the same terms, the result for `CC(C)(C)c1ccc2nc(C3(c4ccc(NC(=O)c5cccc(Cl)c5)nc4)CCC3)[nH]c2c1` [Ex. 12, N-{5-[1-(6-tert-butyl-1H-benzimidazol-2-yl)cyclobutyl]pyridin-2-yl}-3-chlorobenzamide] reads 433 nM; that for `COc1ccc2nc(C3(c4ccc(NC(=O)c5cccc(Cl)c5)nc4)CCC3)[nH]c2c1` [Ex. 14, 3-chloro-N-{5-[1-(6-methoxy-1H-benzimidazol-2-yl)cyclobutyl]pyridin-2-yl}benzamide], 5.62 nM; that for `COc1cccc2[nH]c(C3(c4ccc(NC(=O)c5cccc(Cl)c5)nc4)CCC3)nc12` [Ex. 15, 3-chloro-N-{5-[1-(4-methoxy-1H-benzimidazol-2-yl)cyclobutyl]pyridin-2-yl}benzamide], 10.1 nM.
For the compound `O=C1COc2cc3[nH]c(C4(c5ccc(NC(=O)c6cccc(Cl)c6)nc5)CCC4)nc3cc2N1` [Ex. 18, 3-chloro-N-{5-[1-(7-oxo-3,6,7,8-tetrahydroimidazo[4,5-g][1,4]benzoxazin-2-yl)cyclobutyl]pyridin-2-yl}benzamide], the IC50 came out at 132 nM.
The same measure, in the same setting: with `O=C(Nc1ccc(C2(c3nc4cc(-n5cnnn5)ccc4[nH]3)CCC2)cn1)c1cccc(Cl)c1` [Ex. 20, 3-chloro-N-(5-{1-[5-(1H-tetrazol-1-yl)-1H-benzimidazol-2-yl]cyclobutyl}pyridin-2-yl)benzamide] the figure was 262 nM; with `O=C(Nc1ccc(C2(c3nc4ccc(OC(F)(F)F)cc4[nH]3)CCC2)cn1)c1cccc(Cl)c1` [Ex. 22, 3-chloro-N-(5-{1-[6-(trifluoromethoxy)-1H-benzimidazol-2-yl]cyclobutyl}pyridin-2-yl)benzamide], 14.1 nM.
As for `Cc1cc2nc(C3(c4ccc(NC(=O)c5cccc(Cl)c5)nc4)CCC3)[nH]c2cc1C` [Ex. 26, 3-chloro-N-{5-[1-(5,6-dimethyl-1H-benzimidazol-2-yl)cyclobutyl]pyridin-2-yl}benzamide], the IC50 was found to be 9.66 nM.
`N#Cc1cccc(C(=O)Nc2ccc(C3(c4nc5cc(C#N)cnc5[nH]4)CCC3)cn2)c1` [Ex. 29, 3-cyano-N-{5-[1-(6-cyano-3H-imidazo[4,5-b]pyridin-2-yl)cyclobutyl]pyridin-2-yl}benzamide]: the IC50 is 46 nM.
The same measure, in the same setting: the result for `O=C(Nc1ccc(C2(c3nc4ccccc4n3CCO)CCC2)cn1)c1cccc(Cl)c1` [Ex. 31, 3-Chloro-N-(5-(1-(1-(2-hydroxyethyl)-1H-benzo[d]imidazol-2-yl)cyclobutyl)pyridin-2-yl)benzamide] reads 200 nM; that for `COC(=O)c1cccc2nc(C3(c4ccc(NC(=O)c5cccc(C#N)c5)nc4)CCC3)[nH]c12` [Ex. 35, Methyl 2-(1-(6-(3-cyanobenzamido)pyridin-3-yl)cyclobutyl)-1H-benzo[d]imidazole-7-carboxylate], 383 nM; that for `N#Cc1cccc(C(=O)Nc2ccc(C3(c4nc5cccc(C(=O)O)c5[nH]4)CCC3)cn2)c1` [Ex. 36, 2-(1-(6-(3-Cyanobenzamido)pyridin-3-yl)cyclobutyl)-1H-benzo[d]imidazole-7-carboxylic acid], 10000 nM.
Still for that read-out and setting: with `COC(c1ccc(NC(=O)c2cccc(C#N)c2)nc1)c1nc2cc(C(F)(F)F)cnc2[nH]1` (stereo not drawn) [Ex. 39, 3-Cyano-N-(5-(methoxy(6-(trifluoromethyl)-3H-imidazo[4,5-b]pyridin-2-yl)methyl)pyridin-2-yl)benzamide] the figure was 121 nM; with `CO[C@@H](c1ccc(NC(=O)c2cccc(C#N)c2)nc1)c1nc2cc(C(F)(F)F)cnc2[nH]1` [Ex. 40, (S)-3-cyano-N-(5-(methoxy(6-(trifluoromethyl)-3H-imidazo[4,5-b]pyridin-2-yl)methyl)pyridin-2-yl)benzamide], 94.8 nM; with `CO[C@H](c1ccc(NC(=O)c2cccc(C#N)c2)nc1)c1nc2cc(C(F)(F)F)cnc2[nH]1` [Ex. 41, (R)-3-cyano-N-(5-(methoxy(6-(trifluoromethyl)-3H-imidazo[4,5-b]pyridin-2-yl)methyl)pyridin-2-yl)benzamide], 263 nM.
On the same count and under the same terms, the result for `N#Cc1cccc(C(=O)Nc2ccc(C(O)c3nc4cc(C(F)(F)F)cnc4[nH]3)cn2)c1` (stereo not drawn) [Ex. 42, 3-Cyano-N-(5-(hydroxy(6-(trifluoromethyl)-3H-imidazo[4,5-b]pyridin-2-yl)methyl)pyridin-2-yl)benzamide] reads 5910 nM; that for `N#Cc1cccc(C(=O)Nc2ccc([C@H](O)c3nc4cc(C(F)(F)F)cnc4[nH]3)cn2)c1` [Ex. 43, (S)-3-cyano-N-(5-(hydroxy(6-(trifluoromethyl)-3H-imidazo[4,5-b]pyridin-2-yl)methyl)pyridin-2-yl)benzamide], 3860 nM.
With `N#Cc1cccc(C(=O)Nc2ccc([C@@H](O)c3nc4cc(C(F)(F)F)cnc4[nH]3)cn2)c1` [Ex. 44, (R)-3-cyano-N-(5-(hydroxy(6-(trifluoromethyl)-3H-imidazo[4,5-b]pyridin-2-yl)methyl)pyridin-2-yl)benzamide], the IC50 worked out at 6220 nM.
With `O=C(Nc1ccc(C2(c3nc4c([nH]3)CCCC4)CCC2)cn1)c1cccc(Cl)c1` [Ex. 48, 3-Chloro-N-(5-(1-(4,5,6,7-tetrahydro-1H-benzo[d]imidazol-2-yl)cyclobutyl)pyridin-2-yl)benzamide], the IC50 turned out to be 99.7 nM.

The target in the next test is T1, IDO1. Briefly: IDO1 Human Whole Blood Assay. As to conditions: LPS and IFNγ 100 ng/mL, 18 h, kynurenine by LC/MS/MS. It counts as cell-based. On the procedure:
IDO1 Human Whole Blood Assay
Compounds to be tested were serially diluted in ten 3-fold steps in DMSO starting from 10 mM. 3 μL of compound dilutions or DMSO alone were then dispensed from the dilution plate into a polypropylene 96-well assay plate containing 97 μL of RPMI medium using an Echo 555 acoustic liquid handler (Labcyte). LPS and IFNγ was prepared in RPMI medium to a 10× of final conc. (1000 ng/mL), final concentration is 100 ng/mL.
Human whole blood was drawn in sodium heparin coated tubes from healthy internal donors. 240 μL of blood was transferred to each of the wells of a v-bottom 96 well plate. 30 μL of compound was transferred from intermediate dilution plate, and incubated for 15 min. 30 μL from stimulants was then transferred to blood and mixed thoroughly. Plate was covered with breathable membrane and incubated at 37° C. for overnight (18 h).
On day 2, isotope labeled standard solutions of kunurenine and tryptophan was made in water at 10× concentration and 30 μL was added to the blood at […] concentration. The assay plates were centrifuged at 300×G for 10 min with no brake to separate plasma from red blood cells. 60 μL of plasma samples was removed without disturbing red blood cells. Plasma was diluted with RPMI in 1:1 ratio and proteins were precipitated out with two volumes of Acetonitrile. The plates were centrifuged at 4000×G for 60 min. 20 μL of supernatant was carefully transferred to a 384 well plate containing 40 μL of 0.1% formic acid in water and analyzed by LC/MS/MS.
LC/MS/MS analyses were performed using Thermo Fisher's LX4-TSQ Quantum Ultra system. This system consists of four Agilent binary high-performance liquid chromatography (HPLC) pumps and a TSQ Quantum Ultra triple quadrupole MS/MS instrument. For each sample, 5 μL were injected onto an Atlantis T3 column (2.1 mm×150 mm, 3 μm particle size) from Waters. The mobile phase gradient pumped at 0.8 mL/min was used to elute the analytes from the column at 25° C. The elution started at 0% B increasing linearly to 25% B at 6.5 min, holding at 25% for 1 min, re-equilibrating to 10 min. Mobile phase A consisted of 0.1% formic acid in water. Mobile phase B consisted of 0.1% of formic acid in acetonitrile. Data was acquired in positive mode using a HESI interface. The operational parameters for the TSQ Quantum Ultra instrument were a spray voltage of 4000 V, capillary temperature of 380° C., vaporizer temperature 400° C., shealth gas 60 arbitrary units, Aux gas 20 arbitrary units, tube lens 85 and collision gas 1.2 mTorr. SRM chromatograms of kynurenine (QI: 209.2>Q3:94.0) and internal standard (QI: 215.3>Q3:98.2) were collected for 90 sec. The peak area was integrated by Xcalibur Quan software. The ratios between the kynurenine generated in the reaction and 2D6-Kynurenine spiked-in internal standard were used to generate percentage inhibition and IC50 values. Compounds were titrated and IC50's were calculated by 4 parameter sigmoidal curve fitting formula.
`O=C(Nc1ccc(C2(c3nc4ncc(Br)cc4[nH]3)CCC2)cn1)c1cccc(Cl)c1` [Ex. 1, N-(5-(1-(6-bromo-1H-imidazo[4,5-b]pyridin-2-yl)cyclobutyl)pyridin-2-yl)-3-chlorobenzamide] showed an IC50 of 159 nM.
Still for that read-out and setting: the result for `N#Cc1cnc2nc(C3(c4ccc(NC(=O)c5cccc(Cl)c5)nc4)CCC3)[nH]c2c1` [Ex. 2, 3-Chloro-N-(5-(1-(6-cyano-1H-imidazo[4,5-b]pyridin-2-yl)cyclobutyl)pyridin-2-yl)benzamide] reads 387 nM; that for `O=C(Nc1ccc(C2(c3nc4ccccc4[nH]3)CCC2)cn1)c1cccc(Cl)c1` [Ex. 3, N-(5-(1-(1H-benzo[d]imidazol-2-yl)cyclobutyl)pyridin-2-yl)-3-chlorobenzamide], 429 nM.
